According to ChEMBL document CHEMBL3580612, “Top-down Targeted Metabolomics Reveals a Sulfur-Containing Metabolite with Inhibitory Activity against Angiotensin-Converting Enzyme in Asparagus officinalis” (J Nat Prod, 2015):

Target: Angiotensin-converting enzyme (Homo sapiens, UniProt P12821)
Experiment: Inhibition of ACE (unknown origin) using 3-Hydroxybutylyl-Gly-Gly-Gly substrate assessed as reduction in 3-Hyroxybutylic acid generation incubated for 1 hr by colorimetric assay; call rule not given here

Sequence of Angiotensin-converting enzyme (P12821 whole entry): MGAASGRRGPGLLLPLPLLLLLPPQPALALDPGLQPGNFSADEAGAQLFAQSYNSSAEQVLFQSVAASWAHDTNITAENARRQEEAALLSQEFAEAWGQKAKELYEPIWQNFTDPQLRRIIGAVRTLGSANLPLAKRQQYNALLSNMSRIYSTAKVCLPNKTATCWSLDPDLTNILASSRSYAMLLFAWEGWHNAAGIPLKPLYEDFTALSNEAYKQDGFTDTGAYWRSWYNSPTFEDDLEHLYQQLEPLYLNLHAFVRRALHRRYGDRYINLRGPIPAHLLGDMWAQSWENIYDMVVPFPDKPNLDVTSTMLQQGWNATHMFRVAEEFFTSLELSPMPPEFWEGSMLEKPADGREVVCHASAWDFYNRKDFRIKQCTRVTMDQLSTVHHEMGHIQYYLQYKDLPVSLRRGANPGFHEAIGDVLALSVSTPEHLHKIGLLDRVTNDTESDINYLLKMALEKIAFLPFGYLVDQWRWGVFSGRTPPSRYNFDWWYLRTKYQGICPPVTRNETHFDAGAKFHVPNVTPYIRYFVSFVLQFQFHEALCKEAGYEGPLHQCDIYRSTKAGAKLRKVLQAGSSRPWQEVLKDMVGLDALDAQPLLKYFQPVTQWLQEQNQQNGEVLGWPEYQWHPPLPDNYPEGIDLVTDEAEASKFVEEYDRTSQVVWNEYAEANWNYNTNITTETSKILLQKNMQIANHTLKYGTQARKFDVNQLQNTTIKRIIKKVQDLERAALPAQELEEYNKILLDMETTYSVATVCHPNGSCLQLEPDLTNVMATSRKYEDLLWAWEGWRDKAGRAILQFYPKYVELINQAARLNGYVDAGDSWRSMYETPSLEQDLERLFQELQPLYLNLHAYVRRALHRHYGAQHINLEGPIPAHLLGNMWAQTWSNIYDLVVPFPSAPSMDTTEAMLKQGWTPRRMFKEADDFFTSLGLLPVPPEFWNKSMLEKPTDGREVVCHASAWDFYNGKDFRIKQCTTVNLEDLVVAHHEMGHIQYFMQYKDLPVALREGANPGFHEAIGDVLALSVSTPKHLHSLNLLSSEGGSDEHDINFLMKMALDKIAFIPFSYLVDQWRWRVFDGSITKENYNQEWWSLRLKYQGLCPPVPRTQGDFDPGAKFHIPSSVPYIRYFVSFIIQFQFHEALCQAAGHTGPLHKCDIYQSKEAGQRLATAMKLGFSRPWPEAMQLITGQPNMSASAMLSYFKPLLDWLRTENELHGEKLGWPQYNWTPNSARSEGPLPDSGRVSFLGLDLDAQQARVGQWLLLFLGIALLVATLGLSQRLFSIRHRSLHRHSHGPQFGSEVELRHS

**Q.** How did the IC50 turn out when `N=C(N)NCCC[C@@H](N)C(=O)O` was run?
**A.** Not Active

**Q.** Which IC50 (read-out: IC50) does the source give for `O=C(OC1O[C@H](CO)[C@@H](O)[C@H](O)[C@H]1O)C1CSSC1` (stereo not given in full) here?
**A.** 347 µM

**Q.** Which IC50 does the source give for `O=C(O)C1CSSC1` here?
**A.** Not Active

**Q.** With `N=C(N)NCCC[C@H](N)C(=O)O` [ARGININE] as the compound, how does the IC50 read?
**A.** Not Active

**Q.** How did the IC50 turn out when `N[C@@H](CC(=O)O)C(=O)O` [ASPARTIC ACID] was run?
**A.** Not Active
